{
  "source": "patent US6458767B1",
  "about": "“Use of peptides inhibitory for thrombospondin dependent TGF-β activation in the treatment of kidney disease” (The UAB Research Foundation, priority 1994, dated 2002)",
  "format_in_all_cases": "in vivo, rat",
  "key": {"TGF-β": {"system": "TGF-β", "assay": "Glomerular secretion of active TGF-β (NRK-bioassay of supernatants of isolated glomeruli) in anti-Thy1 rats", "details": "day 8 glomeruli, 24 h supernatant, NRK-bioassay; continuous i.v. peptide infusion", "text": "(§1) Experimental design. Experimental mesangial proliferative glomerulonephritis was induced using the monoclonal mouse anti-Thy1 antibody OX-7. Peptides were continuously infused intravenously (i.v.) via jugular vein using osmotic minipumps starting sixteen hours after disease induction. The effects of the hexapeptide AAWSHW (SEQ ID NO:22) (that interferes with the TSP1-mature TGF-β interaction) or the LSKL-peptide (SEQ ID NO:21) (that blocks the TSP1-LAP interaction) were compared to a control peptide (SLLK) in the anti-Thy1 model. Tissues from different time points (days three, five, eight) of this experiment were analyzed in regard to mesangiolysis, macrophage-influx, MC-proliferation, MC-activation, microaneurysm and matrix formation, GEN proliferation, TSP1, TGF-β1 and 2, as well as TGF-βRI and RII. Functional parameters such as blood pressure, proteinuria, and creatinine clearance were also determined. On day eight, glomerular secretion of active TGF-β was determined in individual animals by incubating isolated glomeruli for twenty-four hours in DMEM and measuring TGF-β activity in glomerular supernatants using the NRK-bioassay.\n(§2) Animal model Experimental mesangial proliferative glomerulonephritis (anti-Thy1 model) was induced in Sprague Dawley rats (180-200 g; Charles River, Sulzfeld, Germany) by a single injection of 1 mg/kg of the mouse monoclonal anti-Thy1 antibody OX-7 (European Collection of Animal Cell Culture, Salisbury, England). In this animal model, complete anti-Thy1 antibody binding occurs within an hour (Johnson et al. (1991) Am. J. Pathol. 138 (2), 313-21). To avoid potential interference of the LAP-peptides with anti-Thy1 antibody binding and subsequent mesangiolysis, the peptide treatment was started sixteen hours after disease induction, when binding of the anti-Thy1 antibody to the mesangium and subsequent mesangiolysis had already occurred. The peptides used in this study were synthesized, purified, and analyzed as described elsewhere (Crawford et al. (1998) Cell 93, 1159-1170).\nRenal biopsies as described previously (Hugo et al. (1997) J. Clin. Invest. 100, 786-794) were performed on days three and five, and the experiment was finished on day eight. To determine DNA incorporation into proliferating cells, each animal was injected intravenously with BrdU (50 mg/kg bw) ninety minutes before the second survival biopsy was taken on day five (peak of MC proliferation). Renal biopsies were fixed in methyl Carnoy's, 10% formalin and/or OCT and snap frozen. A twenty-four hour urine collection for measurement of protein and creatinine was done from day seven to eight, when maximal proteinuria occurs in this model (unpublished observation). Blood pressure measurements were done twice before and twice after disease induction. In renal biopsies, the frequency of glomerular microaneurysms, the number of infiltrating macrophages, the number of proliferating MC, the expression of the contractile protein α-sm actin as a marker of MC-activation, and the expression of TGF-β1, TGF-β2, TGF-βRI, TGF-βRII, TSP1, as well as of extracellular matrix proteins such as collagen I, collagen IV and fibronectin were determined. For TGF-β activity measurements in individual animals on day eight, glomeruli were isolated by differential sieving (Johnson et al. (1991) Am. J. Pathol. 138 (2), 313-21) and counted using five aliquots. Glomerular isolates were discarded if purity was less than 95%. 8000 glomeruli/ml were incubated in DMEM at 37° C. […]"}, "[1]": {"system": "rats with anti-Thy1 disease", "assay": "Glomerular extracellular matrix formation (Masson's Trichrome, collagen I, collagen IV, fibronectin stains) in the anti-Thy1 model", "text": "as §1, §2\n(§3) Renal biopsies as described previously (Hugo et al. (1997) J. Clin. Invest. 100, 786-794) were performed on days three and five, and the experiment was finished on day eight. To determine DNA incorporation into proliferating cells, each animal was injected intravenously with BrdU (50 mg/kg bw) ninety minutes before the second survival biopsy was taken on day five (peak of MC proliferation). Renal biopsies were fixed in methyl Carnoy's, 10% formalin and/or OCT and snap frozen. A twenty-four hour urine collection for measurement of protein and creatinine was done from day seven to eight, when maximal proteinuria occurs in this model (unpublished observation). Blood pressure measurements were done twice before and twice after disease induction. In renal biopsies, the frequency of glomerular microaneurysms, the number of infiltrating macrophages, the number of proliferating MC, the expression of the contractile protein α-sm actin as a marker of MC-activation, and the expression of TGF-β1, TGF-β2, TGF-βRI, TGF-βRII, TSP1, as well as of extracellular matrix proteins such as collagen I, collagen IV and fibronectin were determined. For TGF-β activity measurements in individual animals on day eight, glomeruli were isolated by differential sieving (Johnson et al. (1991) Am. J. Pathol. 138 (2), 313-21) and counted using five aliquots. Glomerular isolates were discarded if purity was less than 95%. 8000 glomeruli/ml were incubated in DMEM at 37° C. After a twenty-four hour incubation period, glomerular supernatants were stored by −70° C. until TGF-β activity measurements were done.\n(§4) Peptide infusion. All peptides (at a concentration of 3.5 mg/ml) were continuously infused for seven days via a catheter in the right jugular vein using osmotic minipumps (Alzet Corp./Charles River, Sulzfeld, Germany). […]"}, "[2]": {"system": "rats with anti-Thy1 disease", "assay": "Glomerular immunostaining score for TGF-β1, TGF-β2, TGF-βRI, TGF-βRII and TSP1 in the anti-Thy1 model", "text": "as §1, §2, §3, §4"}, "[3]": {"system": "rats with anti-Thy1 disease", "assay": "Glomerular MC-proliferation, MC-activation and macrophage influx in the anti-Thy1 model", "text": "as §1, §2, §3, §4"}, "[4]": {"system": "rats with anti-Thy1 disease", "assay": "Mesangiolysis, microaneurysm formation and GEN-proliferation in the anti-Thy1 model", "text": "as §1, §2, §3, §4"}, "[5]": {"system": "rats with anti-Thy1 disease", "assay": "Functional parameters (proteinuria, creatinine clearance, blood urea nitrogen, systolic blood pressure) in the anti-Thy1 model", "text": "as §1, §2, §3, §4"}},
  "data": [
    {"substance": "control/SLLK: control peptide SLLK (SEQ ID NO:47), group 1 [reference compound]", "values": [
      {"measurement": "Active TGF-β (colonies > 62 um)", "setting": "TGF-β", "value": "380 ± 60", "unit": "colonies > 62 um"},
      {"measurement": "Matrix Collagen 1 (score 0-4)", "setting": "[1]; day 3", "value": "0.1 ± 0.1", "unit": "score 0-4"},
      {"measurement": "Matrix Collagen IV (score 0-4)", "setting": "[1]; day 3", "value": "1.2 ± 0.4", "unit": "score 0-4"},
      {"measurement": "Matrix Fibronectin (score 0-4)", "setting": "[1]; day 3", "value": "1.5 ± 0.8", "unit": "score 0-4"},
      {"measurement": "Matrix Trichrome (score 0-3)", "setting": "[1]; day 3", "value": "0.7 ± 0.3", "unit": "score 0-3"},
      {"measurement": "Matrix Collagen 1 (score 0-4)", "setting": "[1]; day 5", "value": "2.3 ± 0.5", "unit": "score 0-4"},
      {"measurement": "Matrix Collagen IV (score 0-4)", "setting": "[1]; day 5", "value": "3.3 ± 0.4", "unit": "score 0-4"},
      {"measurement": "Matrix Fibronectin (score 0-4)", "setting": "[1]; day 5", "value": "3.2 ± 0.4", "unit": "score 0-4"},
      {"measurement": "Matrix Trichrome (score 0-3)", "setting": "[1]; day 5", "value": "1.5 ± 0.2", "unit": "score 0-3"},
      {"measurement": "Matrix Collagen 1 (score 0-4)", "setting": "[1]; day 8", "value": "2.0 ± 0.5", "unit": "score 0-4"},
      {"measurement": "Matrix Collagen IV (score 0-4)", "setting": "[1]; day 8", "value": "2.6 ± 0.6", "unit": "score 0-4"},
      {"measurement": "Matrix Fibronectin (score 0-4)", "setting": "[1]; day 8", "value": "2.3 ± 0.9", "unit": "score 0-4"},
      {"measurement": "Matrix Trichrome (score 0-3)", "setting": "[1]; day 8", "value": "2.3 ± 0.4", "unit": "score 0-3"},
      {"measurement": "TGF-β1 (score 0-4)", "setting": "[2]; day 3", "value": "0.2 ± 0.2", "unit": "score 0-4"},
      {"measurement": "TGF-β2 (score 0-4)", "setting": "[2]; day 3", "value": "0.2 ± 0.1", "unit": "score 0-4"},
      {"measurement": "TGF-βRI (score 0-4)", "setting": "[2]; day 3", "value": "0.4 ± 0.2", "unit": "score 0-4"},
      {"measurement": "TGF-βRII (score 0-4)", "setting": "[2]; day 3", "value": "0.4 ± 0.3", "unit": "score 0-4"},
      {"measurement": "TSP I (score 0-4)", "setting": "[2]; day 3", "value": "0.2 ± 0.2", "unit": "score 0-4"},
      {"measurement": "TGF-β1 (score 0-4)", "setting": "[2]; day 5", "value": "2.6 ± 0.6", "unit": "score 0-4"},
      {"measurement": "TGF-β2 (score 0-4)", "setting": "[2]; day 5", "value": "1.6 ± 0.4", "unit": "score 0-4"},
      {"measurement": "TGF-βRI (score 0-4)", "setting": "[2]; day 5", "value": "1.9 ± 0.5", "unit": "score 0-4"},
      {"measurement": "TGF-βRII (score 0-4)", "setting": "[2]; day 5", "value": "1.9 ± 0.5", "unit": "score 0-4"},
      {"measurement": "TSP I (score 0-4)", "setting": "[2]; day 5", "value": "2.0 ± 0.6", "unit": "score 0-4"},
      {"measurement": "TGF-β1 (score 0-4)", "setting": "[2]; day 8", "value": "1.5 ± 0.8", "unit": "score 0-4"},
      {"measurement": "TGF-β2 (score 0-4)", "setting": "[2]; day 8", "value": "1.3 ± 0.8", "unit": "score 0-4"},
      {"measurement": "TGF-βRI (score 0-4)", "setting": "[2]; day 8", "value": "1.8 ± 0.9", "unit": "score 0-4"},
      {"measurement": "TGF-βRII (score 0-4)", "setting": "[2]; day 8", "value": "1.3 ± 0.8", "unit": "score 0-4"},
      {"measurement": "TSP I (score 0-4)", "setting": "[2]; day 8", "value": "0.6 ± 0.3", "unit": "score 0-4"},
      {"measurement": "MC-activation α-sm actin (score 0-4)", "setting": "[3]; day 3", "value": "0.8 ± 0.4", "unit": "score 0-4"},
      {"measurement": "MC-proliferation (OX-7 + /PCNA + cells/glomerulus)", "setting": "[3]; day 3", "value": "3.6 ± 0.7", "unit": "cells/glomerulus"},
      {"measurement": "Macrophages (ED-1 + cells/glomerulus)", "setting": "[3]; day 3", "value": "4.5 ± 1.6", "unit": "cells/glomerulus"},
      {"measurement": "MC-activation α-sm actin (score 0-4)", "setting": "[3]; day 5", "value": "2.9 ± 0.3", "unit": "score 0-4"},
      {"measurement": "MC-proliferation (OX-7 + /BrdU + cells/glomerulus)", "setting": "[3]; day 5", "value": "4.7 ± 0.8", "unit": "cells/glomerulus"},
      {"measurement": "MC-proliferation (OX-7 + /PCNA + cells/glomerulus)", "setting": "[3]; day 5", "value": "9.1 ± 1.5", "unit": "cells/glomerulus"},
      {"measurement": "Macrophages (ED-1 + cells/glomerulus)", "setting": "[3]; day 5", "value": "1.9 ± 0.5", "unit": "cells/glomerulus"},
      {"measurement": "MC-activation α-sm actin (score 0-4)", "setting": "[3]; day 8", "value": "2.9 ± 0.5", "unit": "score 0-4"},
      {"measurement": "MC-proliferation (OX-7 + /PCNA + cells/glomerulus)", "setting": "[3]; day 8", "value": "4.2 ± 0.5", "unit": "cells/glomerulus"},
      {"measurement": "Macrophages (ED-1 + cells/glomerulus)", "setting": "[3]; day 8", "value": "1.5 ± 0.5", "unit": "cells/glomerulus"},
      {"measurement": "Glomerular Microaneurysm (in percent)", "setting": "[4]; day 3", "value": "34.0 ± 30.1", "unit": "%"},
      {"measurement": "Glomerular Microaneurysm (in percent)", "setting": "[4]; day 5", "value": "20.6 ± 22.7", "unit": "%"},
      {"measurement": "Glomerular Microaneurysm (in percent)", "setting": "[4]; day 8", "value": "6.0 ± 5.9", "unit": "%"},
      {"measurement": "Glomerular GEN-proliferation (double staining for RECA-1 and PCNA)", "setting": "[4]; day three", "value": "2.2 cells/glomerular cross-section"},
      {"measurement": "mesangiolysis scores", "setting": "[4]; day three, scale 0-IV", "value": "2.7±0.5"},
      {"measurement": "Proteinuria (mg/24 hours)", "setting": "[5]; day 8 (urine collection day seven to eight)", "value": "83 ± 40", "unit": "mg/24 hours"},
      {"measurement": "twenty-four hour proteinuria", "setting": "[5]; days seven to eight", "value": "83±40", "unit": "mg/twenty-four hours"},
      {"measurement": "Blood urea nitrogen", "setting": "[5]; rat, in vivo", "value": "33.2 ± 12.7", "unit": "mg/dL"}
    ]}
  ]
}
